Tests used:
[1] = Long Reaction Time Capacity Test; settings: 20 g test
Text: Referring now to FIG. 1, therein is schematically depicted a sulfide scavenger testing system 100 comprising a gas source 2, a flow regulator 4, gas treatment vessel 6, and a sulfide measurement device 8. In one testing embodiment, gas (not shown) is flowed from gas source 2 via gas feed piping 10 into flow regulator 4, which regulates gas flow to gas treatment vessel 6 via regulated gas feed piping 12. The regulated gas flows into gas treatment vessel 6 via a bottom inlet 14 thereof, where it comes into contact with a volume of liquid 16 comprising a sulfide scavenger system (not separately labeled). The gas, having been treated by the liquid, flows out of a top end 18 of gas treatment vessel 6 and flows into sulfide measurement device 8 via treated gas outlet piping 20.
In one embodiment, the gas contained in gas source 2 consists substantially of about 15% H2S, and about 3% CO2, with the remainder being Methane. In one embodiment, gas flow from the flow regulator 4 is controlled such that the gas is flowed into the gas treatment vessel 6 at a flow rate of 100 mL/min. up to 500 mL/min. In one embodiment, a gas sparging device, such as a fine pore frit (not shown), is utilized to better distribute the gas into the scavenger liquid. In one embodiment, the gas treatment vessel 6 contains about 20 g of a liquid H2S scavenger, such as one or more diaminols/diaminacetals in a chemical system as described above. In one aspect, to the extent possible, H2S and/or CO2 are scavenged from the gas by the scavenger and the treated (“sweet”) gas exits top end 18 of treatment vessel 6. In one embodiment, sulfide measurement device 8 monitors the concentration of H2S leaving treatment vessel 6. in the gas phase. In other embodiments (not shown), a CO2 measurement device may be similarly employed to monitor the concentration of CO2 leaving treatment vessel 6 in the gas phase.
In one embodiment, gas is flowed through sulfide scavenger testing system 100 until the outlet H2S concentration reaches a 4,000 ppm target, at which point the test is concluded. This relative time duration before the target is reached is used to compare H2S scavenger capacity given the kinetics of each sulfide scavenger system. The longer the duration, the better the capacity.
In this test, methane containing 15% H2S and 3% CO2 by weight is sparged via a fine pore frit (not shown) at 100 mL/min through a column of 20 g of scavenger solution (See FIG. 1). The fine bubbles produced rise slowly, providing plenty of time, plenty of surface area, and a short path through which the H2S must diffuse to the scavenger in the liquid 16. Detector 8 on the outlet line 20 is used to measure H2S concentration in the exiting gas. The times to first detection (FD), at a threshold of 15 ppm, and to complete breakthrough (BT), at the detector saturation of 4000 ppm (0.4%), are recorded. This test is designed to measure the effective scavenging capacity in applications with long contact times.
Note that the true total capacity of a scavenger with infinite time to react is simply equal to the stoichiometry of the reaction—the moles of H2S consumable per mole of scavenging molecule, which can be calculated. This Long Reaction Time Capacity measurement falls short of that ultimate stoichiometric capacity and so is still reaction rate dependent, just less so than the Short Reaction Time Capacity Test.

[2] = Spent Water Flowability Test; format: physicochemical; parameters: key: Pass: A homogeneous, single-phase solution or thin layer of readily flowable non-sticking liquid constitutes a pass.; Fail: Any solids or thick, sticky insoluble liquid is a fail.; PASS: A homogeneous, single-phase solution or thin layer of readily flowable non-sticking liquid constitutes a pass.; FAIL: Any solids or thick, sticky insoluble liquid is a fail; settings: Table 5; glyoxy alkyl diaminol in water and MeOH only
Method: In field applications, spent scavenger is disposed of through a wastewater system. Spent scavenger might be soluble in the scavenger system but insoluble in wastewater. If it cannot be disposed of, it is not suitable for use. To ensure wastewater processing runs trouble free, spent scavenger passing the Spent Solids Fouling Test is then added to 39 times its weight in water (2.5%) and examined again for insoluble solids and viscous, sticky liquids that might foul the wastewater system. Any solids or thick, sticky insoluble liquid is a fail. A homogeneous, single-phase solution or thin layer of readily flowable non-sticking liquid constitutes a pass.

[3] = Hot Spray Fouling Test; format: physicochemical; settings: Table 5; glyoxy alkyl diaminol in water and MeOH only
Text: In many gas applications, the scavenger must by sprayed into a hot gas stream. This can create insoluble materials (“solids”) as the scavenger system evaporates and/or decomposes. These solids accumulate and foul (interfere with the function) of the vessel, line, or equipment to which the scavenger is being fed. This precludes the scavenger being used in that application. Referring now to FIG. 2, a spray test system 200 is utilized to for the Hot Spray Fouling Test. In one embodiment, an injection atomizer apparatus 22 is employed, wherein the scavenger formulation (not separately labeled) is sprayed onto a sheet 26 through an atomizing nozzle 24, like that used to introduce the scavenger into a gas line, tank, or vessel. The material is first placed in a double boiler (not shown) and brought to 180° F. The heated liquid is then placed in the injection atomizer apparatus 22 and sprayed horizontally onto an aluminum sheet 26 twelve inches away. The chemical drains gravitationally down the sheet where it is funneled into a beaker 28 for collection. If solids are observed on the sheet 26 or in the draining or collected fluid, the sample fails. If no solids are observed, it passes the test.

[4] = Solution Homogeneity Test; format: physicochemical; settings: Table 5; glyoxy alkyl diaminol in water and MeOH only
Text: In one aspect, as two-phase reaction products are problematic, scavenger system homogeneity is desired. The two phases could be emulsified or otherwise finely dispersed, but in practice, even fine, seemingly stable dispersions eventually separate or stratify in extended storage or critical use and are not robust enough for practical use. They are not allowed, for example, to be fed through capillaries for fear of plugging them. In this pass/fail test, a sample is held up for visual inspection in a backlit clear vial. A clear, single-phase, homogeneous solution is a pass. Anything else is a fail.

[5] = operational testing in a natural gas production facility
Method: In operational testing in a natural gas production facility, both an anhydrous glyoxy isopropyl aminacetal (GIDAc) scavenging system and an aqueous glyoxy isopropyl diaminol (GIDA) scavenging system were tested in comparison with an industry standard triazine-based scavenger.

[6] = Eq/test Triazine 0.068, GIDAc 0.185, GIDA 0.076
[7] = Triazine 7.50 g + 12.50 g water, GIDAc 13.00 g as GID + 7.00 g MeOH, GIDA 6.68 g as GID, 3.32 g water, 8.00 g MeOH, 2.00 g BuOH

## CC(C)NC(O)C(O)NC(C)C (stereo not drawn) [GIDA, 1,2-bis[(propan-2-yl)amino]ethane-1,2-diol]
[1]; [6]
  Min/Eq BT: 805 Min/Eq
  Min/Eq FD: 607 Min/Eq
[1]; [7]
  Min to BT: 61 min
  Min to FD: 46 min
[2]
  Spent Water Flowability: Fail
[3]
  Hot Spray Fouling: Fail
[4]
  Solution Homogeneity: Pass
[5]; compared with the triazine-based scavenging system
  H2S removal on a pound-per-pound basis: significantly higher H2S removal
[5]; natural gas production facility
  employable in scavenging H2S from natural gas: employable

Source: patent publication US20220017833A1, “Methods and Compositions for Scavenging Sulfides from Hydrocarbon Fluids and Aqueous Streams” (Nexgen Oilfield Chemicals, LLC, priority 2019, published 2022)
